Data on 13 compounds can be found in patent publication US20190142835A1, “INHIBITION OF AUTOPHAGY USING PHOSPHOLIPASE A2 INHIBITORS” (OREGON HEALTH & SCIENCE UNIVERSITY, priority 2017, published 2019).

Test [1] has as its system ACHN cells. Description: High content imaging screen of 116 small molecule inhibitors for p62 and pS6. It counts as cell-based, human. Particulars: HCI screen, 72 hr; for p62 expression and phosphorylation of S6: 7-point dilution series. An excerpt:
We used a metastatic human RCC cell line, ACHN. Small molecule inhibitors have been extensively used in RCC over the last decade. […] Importantly, p62 is an autophagy substrate that is degraded along with its cargo, and so is expected to decrease with induction of autophagy. Therefore, we monitored p62 steady-state levels as an initial screen of autophagy flux. Next, we combined the measurement of the p62 with a measurement of mTORC1 activity an independent readout to evaluate autophagy. mTORC1 plays the central role in the anabolic process by increasing protein content through ribosomal biogenesis and elongation of protein translation. Specifically, mTORC1 induces mRNA translation by inducing the activation of p70S6 kinase and the subsequent phosphorylation of the S6 ribosomal protein. To ensure increased cellular biomass, mTORC1 downregulates autophagy. We chose the phosphorylation status of the downstream target of mTORC1 signaling, ribosomal S6 (hereafter S6) as a readout for mTORC1 activity.
To provide a straightforward method for detecting the induction of autophagy, we monitored ACHN cells for small molecule inhibitors which decreased the antibody labelled levels of p62 protein and pS6 phosphorylation (see methods below for detailed experiment procedure). To that end, automated high content imaging (HCl) microscopy was used to detect induction of autophagy as documented by the […] by p62 protein expression and mTORC1 inhibition by the decrease in S6 phosphorylation. The HCl assay was optimized for 384-well plate screening. Drug screening plates were designed and created as previously described.
A 7-point dilution series of 116 small molecule inhibitors covering a 1000× concentration range were plated into three, 384-well plates using the EP Motion automated dispensing system. Control wells with equal volumes of DMSO were included as negative controls. ACHN cells were grown, trypsinized counted, and plated directly into warm drug plates using Multidrop combi dispenser. Plates were incubated for 72 hr and subsequently imaged on the Olympus ScanR Platform at 10× magnification performing 4 images per well in 384 well plates. Single-cell nuclear and cytoplasmic fluorescent intensities were calculated using the Olympus ScanR Analysis Software: the DAPI-positive region of each cell was used as a boundary to quantitate nuclei counts for analysis of cell growth and integrated nuclear DNA staining intensity was used for cell cycle analysis. A 10-pixel extension of the nuclear region (and not including the nuclear region) was used to quantitate cytoplasmic signal of immunofluorescent staining of p62 protein and phosphorylation of S6. Mean signal intensity of each marker in all cells per well was used as the metric for cytoplasmic marker expression (average intensity of pS6 and p62). Unsupervised hierarchical clustering was used to identify compounds that produced similar pS6 and p62 dose response phenotypes after treatment.

In test [2] the test system is mTORC1. Description: Autophagy induction and mTORC1 inhibition by JAK inhibitors not contained in the library. The class given is cell-based.
The subject of test [3] is ACHN cells. Description: Lipid droplet staining (Bodipy 493/503), ACHN. The class given is cell-based, human. The procedure: Cells were grown on coverslips then treated with drug for 24 hours. Cells were fixed in 4% paraformaldehyde for 15 min, rinsed with PBS. Cells were washed with a 1% saponin solution for 15 min at room temperature then washed several times in PBS to remove detergent. Cells were then incubated in Bodipy (ThermoFisher #D3922) at a final concentration of 1 uM for 10 min. Bodipy was removed and slides were rinsed with PBS then air dried and mounted on slides using Dako mounting media with Dapi.

In test [4] the test system is ACHN cells. Put plainly: Cell viability (CellTiter-Glo), ACHN. Particulars: for proliferation (cell viability): ACHN, 3 days. It counts as cell-based, human. The procedure: Cell viability assays were performed by plating 2000 cells/well in 96-well plates in triplicate and treating the following day with the indicated agent. The experiment was continued for 3 days and then cell viability was determined using CellTiter-Glo assay kit (Promega).
The assay was measured using a luminometer. […] Experimental results are the average of at least three independent experiments.
(In general: ATP-based viability assays read luminescence as a measure of living cells.)

Test [5] relates to ACHN cells. Description: Cellular respiration (XF96 Seahorse, ECAR and OCR). The class given is cell-based, human. Particulars: 24 h. The procedure:
Oxygen consumption and extracellular acidification rates were carried out in a XF96 Seahorse Analyzer (Seahorse Bioscience, Billerica, Mass., USA). Cells were plated in the wells of 96-well plates (8×10^3 cells/well; XF96 plates, Seahorse Bioscience, North Billerica, Mass.) and incubated at 37° C. overnight. The next day, cells were treated with indicated drugs for 24 hours and then the medium was changed to XF Assay Medium and loaded with glucose, oligomycin, and 2-DG, respectively, as manufacture's recommendation.

Test [6] has as its system ACHN cells. Put plainly: Apoptosis (Caspase 3/7-Glo), ACHN. It counts as cell-based, human. The procedure:
(§1) Apoptosis was determined using Caspase 3/7-Glo assay kit (Promega) following the manufacturer's instructions. Briefly, 2000 cells per well were plated in 96 well plates and cultured for 72 h. […] Caspase 3/7 activity was measured using a luminometer. Luminescence values were normalized by cell numbers.

For test [7], the system named is SN12C cells. Description: Cell viability (CellTiter-Glo), SN12C. It counts as cell-based, human. Particulars: 3 days. As to the method: Cell viability assays were performed by plating 2000 cells/well in 96-well plates in triplicate and treating the following day with the indicated agent. The experiment was continued for 3 days and then cell viability was determined using CellTiter-Glo assay kit (Promega). The assay was measured using a luminometer. […] Experimental results are the average of at least three independent experiments.

Test [8] has as its system PI3K, mTORC1 and mTORC2 signaling. Put plainly: Western blotting of PI3K-AKT-mTOR signaling. The class given is cell-based, human. As to the method:
Cells were plated in 6 well dishes and treated the following day with the indicated agents. Treatments were for 24 hours, after which cells were washed with ice cold PBS and lysed with RIPA buffer (Sigma). Phosphatase inhibitor cocktail set II and protease inhibitor cocktail set III (EMD Millipore) were added at the time of lysis. Lysates were centrifuged at 15,000 g×10 min at 4 degrees C. Protein concentrations were calculated based on a BCA assay (Thermo Scientific) generated standard curve. Proteins were resolved using the NuPAGE Novex Mini Gel system on 4% to 12% Bis-Tris Gels (Invitrogen). For western blotting, equal amounts of cell lysates (15-20 μg of protein) were resolved with SDSPAGE, and transferred to membranes. The membrane was probed with primary antibodies, washed, and then incubated with corresponding fluorescent secondary antibodies and washed. The fluorescent signal was captured using LI-COR (Lincoln, Nebr.) Odyssey Imaging System, and fluorescent intensity was quantified using the Odyssey software where indicated. The following antibodies were used for Western blots: p-S6 (S240/244), S6, LC3B, p-Akt(S473), p-Akt(T308), Akt, cleaved caspase3 (Cell Signaling Technologies). p-Stat3 (Y705), Stat3 and β-actin (AC15) (Abcam). Ki67 (Dako) and cleaved caspase3 (Cell Signaling Technologies) were used for immunohistochemistry. […] BX795 and GDC0941 were purchased from Sigma.

Test [9] deals with SN12C cells. Description: Apoptosis (Caspase 3/7-Glo), SN12C. Particulars: 72 h. The class given is cell-based, human. The procedure: as §1

Turning to `Oc1nc(-c2ccc(C(F)(F)F)cc2)nc2c1CSCC2` [XAV939], in test [1], the “induction of autophagy / autophagic flux” value is “induce autophagy”.
With `C[C@]12O[C@H](C[C@]1(O)CO)n1c3ccccc3c3c4c(c5c6ccccc6n2c5c31)CNC4=O` [CEP-701], in test [2], the autophagy induction result was “potently induced autophagy” and the mTORC1 inhibition result was “inhibited mTORC1”.
For the compound `CC(C)n1nc(-c2cc3cc(O)ccc3[nH]2)c2c(N)ncnc21` [PP-242], the “p62 expression and phosphorylation of S6” value in test [1] was “reduced both p62 expression and phosphorylation of S6”.
Take `O=C(c1ccc(/C=C/c2n[nH]c3ccccc23)cc1)N1CCNCC1` [KW2449]: the “induction of autophagy / autophagic flux” value in test [1] was “induce autophagy”.
In the case of `CCCCCCCC/C=C\CCCCCCCCOCCOP(=O)([O-])OCC[N+](C)(C)C` [OOEPC, oleyloxyethylphosphocholine], in [3] (24 hrs), the “LD abundance on addition to CYT387, MK2206 and CYT387-MK2206 co-treated cells” value was “significantly reduced the LD abundance”. Also, the “proliferation on co-treatment with CYT387, MK2206, CYT387+MK2206” value in test [4] was “minimal additional effect on proliferation”. Also, in test [5], the “ECAR and OCR on addition to the CYT387-MK2206 combination” value is “markedly decreased ECAR and OCR”; the “basal OCR on addition to the CYT387-MK2206 combination” value is “marked decrease in the basal OCR”; the “spare respiratory capacity on addition to the CYT387-MK2206 combination” value is on record as “significantly reduced the spare respiratory capacity”. In addition, the “apoptosis (Caspase3/7 activity) on addition to CYT387, MK2206, CYT387+MK2206” value in [6] was “significantly increased apoptosis”.
In the case of `CN[C@@H]1C[C@H]2O[C@@](C)([C@@H]1OC)n1c3ccccc3c3c4c(c5c6ccccc6n2c5c31)C(=O)NC4` [Staurosporine], the “p62 expression and phosphorylation of S6” value in test [1] is “reduced both p62 expression and phosphorylation of S6”.
Same read-out and setting: to `Cn1c(=O)n(-c2ccc(C(C)(C)C#N)cc2)c2c3cc(-c4cnc5ccccc5c4)ccc3ncc21` [BEZ-235] belongs “reduced both p62 expression and phosphorylation of S6”.
`CCc1c(C(=O)C(N)=O)c2c(OCC(=O)O)cccc2n1Cc1ccccc1` [varespladib]: the “LDs on addition to CYT387-MK2206 treated cells” value in test [3] was “decreased LDs”. In addition, the “apoptosis on addition to CYT387-MK2206 treated cells” value in [6] is on record as “increased apoptosis”.
In the case of `CC(C)C[C@H](NC(=O)[C@H](Cc1ccccc1)NC(=O)c1cnccn1)B(O)O` [Velcade], the “p62 expression and phosphorylation of S6” value in test [1] was “reduced both p62 expression and phosphorylation of S6”.
Still for that read-out and setting: to `O=S(=O)(NCCNC/C=C/c1ccc(Br)cc1)c1cccc2cnccc12` [H89] belongs “reduced both p62 expression and phosphorylation of S6”.
`CS(=O)(=O)N1CCN(Cc2cc3nc(-c4cccc5[nH]ncc45)nc(N4CCOCC4)c3s2)CC1` [GDC-0941]: the “proliferation (cell viability)” value in [4] and in test [7] was “some anti-proliferative effects” in each case. The “effect on mTORC1 activity in cells treated with CYT387” value in test [8] (added to CYT387) is recorded as “additive inhibitory effect on mTORC1 activity”.
Turning to `O=C(NCCCNc1nc(Nc2cccc(NC(=O)N3CCCC3)c2)ncc1I)c1cccs1` [BX795], the “proliferation (cell viability)” value in test [4] and in test [7] was “some anti-proliferative effects” throughout. The “apoptosis (cleaved-caspase 3/7)” value in test [6] (ACHN, 72 h) is listed as “little or no effect on apoptosis”; in test [9], “little or no effect on apoptosis”. Further, in [8], the “mTORC1 or mTORC2 signaling (AKT S473 and S6 phosphorylation)” value is recorded as “not able to inhibit mTORC1 or mTORC2 signaling”.
Consider `CN1CC[C@H](c2c(O)cc(O)c3c(=O)cc(-c4ccccc4Cl)oc23)[C@H](O)C1` [Flavopiridol], for which the “p62 expression and phosphorylation of S6” value in test [1] is “reduced both p62 expression and phosphorylation of S6”.
